Reference: patent US20240010606A1, “FUMARATE DERIVATIVES AND THEIR MEDICAL USE” (Sitryx Therapeutics Limited, priority 2020, published 2024)

Columns and labels:
[1] = test system: IL-1β; experiment: THP-1 AlphaLISA IL-1β cytokine assay; type: cell-based; conditions: Homo sapiens; differentiated THP-1 cells; Table 2, compounds of formula (II)
How it was run: (§1)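 THP-1 cells differentiated 72 h with PMA, pre-incubated 30 min with compounds, stimulated 24 h with LPS, then 1 h with nigericin, all at 37 °C. Supernatant cytokine measured by AlphaLISA; % inhibition normalised to ±LPS controls and IC50 taken from concentration-response curves.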

[2] = test system: NRF2; experiment: NRF2 activation assay (DiscoverX PathHunter NRF2 translocation kit, U2OS cells); type: cell-based
How it was run: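 PathHunter U2OS cells, grown 24 h at 37 °C/5% CO2, treated 6 h with compound; NRF2 nuclear translocation read as enzyme-fragment-complementation chemiluminescence. Activation normalised to dimethyl fumarate high and untreated low controls; EC50 from concentration-response curve.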

[3] = test system: hepatocytes; experiment: Hepatocyte stability assay, human; type: in vitro ADME; conditions: 10 μM compound, Table 6
How it was run: (§2)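 Cryopreserved hepatocytes (viability >70%) at 0.5×10^6 cells/mL in Leibovitz buffer, preincubated 10 min at 37 °C, then compound at 10 μM (0.1% DMSO) in duplicate; buffer-only incubations as control. Samples at 0-60 min quenched in acetonitrile, analysed by LC-MS/MS; half-life and CLint (μL min^−1 10^−6 cells) from ln % remaining versus time.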

[4] = Hepatocyte stability assay, human; type: in vitro ADME; conditions: cryopreserved hepatocytes, 10 μM compound, Table 6, read-out: T½
How it was run: as §2

[5] = test system: IL-6; experiment: THP-1 AlphaLISA IL-6 cytokine assay; type: cell-based; conditions: Homo sapiens, THP-1, differentiated THP-1 cells; Table 2, compounds of formula (II)
How it was run: as §1

[6] = test system: hepatocytes; experiment: Hepatocyte stability assay, mouse; type: in vitro ADME; conditions: 10 μM compound, Table 6
How it was run: as §2

[7] = Hepatocyte stability assay, mouse; type: in vitro ADME; conditions: mouse, cryopreserved hepatocytes, 10 μM compound, Table 6, read-out: T½
How it was run: as §2

[8] = +GSH, Table 4, compounds of formula (II)
[9] = −GSH, Table 4, compounds of formula (II)

Row | EC50 ([2]; +GSH, from repeated experiments, Table 4) | SMILES | IC50 [1] | EC50 [2, 8] | NRF2 activation Emax [2, 8] | EC50 [2, 9] | NRF2 activation Emax [2, 9] | CIint [3] | half-life at 10 μM [4] | IC50 [5] | CIint [6] | half-life at 10 μM [7]
1 | 23 to 48.4 µM | CC(C)(OC(=O)/C=C/C(=O)O)c1ccc(C(F)(F)F)cc1 [Intermediate 21, (E)-4-oxo-4-((2-(4-(trifluoromethyl)phenyl)propan-2-yl)oxy)but-2-enoic acid] | 6 to 30 µM | < 23 µM | ++ (++ means >87-114%) | < 23 µM | +++ (+++ means >114-150%) | ++++ (++++ means 5-15) | > 1.67 h | > 100 µM | ++++ (++++ means 5-15) | > 1.67 h
2 | – | O=C(O)/C=C/C(=O)OC1(c2cc(Cl)c(F)c(Cl)c2)CCC1 [Intermediate 25, (E)-4-(1-(3,5-dichloro-4-fluorophenyl)cyclobutoxy)-4-oxobut-2-enoic acid] | 6 to 30 µM | < 23 µM | ++ (++ means >87-114%) | < 23 µM | ++++ (++++ means >150%) | +++ (+++ means >15-30) | > 1.67 h | < 6 µM | ++ (++ means >30-110) | 0.5 to 1.67 h
3 | – | O=C(O)/C=C/C(=O)OC1(c2ccc(C(F)(F)F)c(Cl)c2)CCC1 [Intermediate 26, (E)-4-(1-(3-chloro-4-(trifluoromethyl)phenyl)cyclobutoxy)-4-oxobut-2-enoic acid] | < 6 µM | < 23 µM | ++ (++ means >87-114%) | < 23 µM | +++ (+++ means >114-150%) | +++ (+++ means >15-30) | 0.5 to 1.67 h | < 6 µM | ++ (++ means >30-110) | 0.5 to 1.67 h
4 | – | O=C(O)/C=C/C(=O)OC1(c2ccc(OC(F)(F)F)cc2)CCC1 [Intermediate 30, (E)-4-oxo-4-(1-(4-(trifluoromethoxy)phenyl)cyclobutoxy)but-2-enoic acid] | < 6 µM | 23 to 48.4 µM | ++ (++ means >87-114%) | < 23 µM | +++ (+++ means >114-150%) | ++++ (++++ means 5-15) | > 1.67 h | 6 to 30 µM | +++ (+++ means >15-30) | 0.5 to 1.67 h
5 | – | O=C(O)/C=C/C(=O)OC1(c2ccc(C(F)(F)F)cc2)CC1 [Intermediate 38, (E)-4-oxo-4-(1-(4-(trifluoromethyl)phenyl)cyclopropoxy)but-2-enoic acid] | < 6 µM | < 23 µM | + (+ means >50-<87%) | < 23 µM | ++++ (++++ means >150%) | +++ (+++ means >15-30) | 0.5 to 1.67 h | 6 to 30 µM | ++ (++ means >30-110) | 0.0833 to 0.483 h
